Measurements from patent US11173151B2, “Substituted triazole derivatives and uses thereof” (BAYER AKTIENGESELLSCHAFT, priority 2017, dated 2021).
Read-outs that look alike come from different tables or passages of the source.

Experiments:
[1] = target: T1, human V2 receptor (Homo sapiens, UniProt P30518); assay: Cellular in vitro assay for determining vasopressin receptor activity, V2 receptor cell line (CHO, CRE-luciferase); type: cell-based; conditions: CHO cell line transfected with human V2 receptor, [Arg8]-vasopressin at EC50 concentration, read-out: IC50 hV2
T1 construct: expressed in transfected cells; host or cells: CHO K1 (ATCC) expressing firefly luciferase under a CRE-responsive promoter

[2] = target: T2, human V1a receptor (Homo sapiens, UniProt P37288); assay: Cellular in vitro assay for determining vasopressin receptor activity, V1a receptor cell line (CHO, aequorin luminescence); type: cell-based; conditions: for IC50: CHO cell line transfected with human V1a receptor, [Arg]-vasopressin at EC50 concentration, read-out: IC50 hV1a; for ratio IC50 hV2/hV1a: selectivity ratio IC50 hV2 / IC50 hV1a
T2 construct: expressed in transfected cells; host or cells: CHO K1 (ATCC), also stably transfected with a modified aequorin
Method in brief: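 Antagonism is measured in stable CHO K1 transfectants coexpressing the Gαq-coupled receptor and a calcium-sensitive aequorin photoprotein. Agonist challenge uses [Arg]-vasopressin at EC50 after a 10-minute compound exposure; IC50 values come from the luminescence signal.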

T2 sequence (P37288 whole entry): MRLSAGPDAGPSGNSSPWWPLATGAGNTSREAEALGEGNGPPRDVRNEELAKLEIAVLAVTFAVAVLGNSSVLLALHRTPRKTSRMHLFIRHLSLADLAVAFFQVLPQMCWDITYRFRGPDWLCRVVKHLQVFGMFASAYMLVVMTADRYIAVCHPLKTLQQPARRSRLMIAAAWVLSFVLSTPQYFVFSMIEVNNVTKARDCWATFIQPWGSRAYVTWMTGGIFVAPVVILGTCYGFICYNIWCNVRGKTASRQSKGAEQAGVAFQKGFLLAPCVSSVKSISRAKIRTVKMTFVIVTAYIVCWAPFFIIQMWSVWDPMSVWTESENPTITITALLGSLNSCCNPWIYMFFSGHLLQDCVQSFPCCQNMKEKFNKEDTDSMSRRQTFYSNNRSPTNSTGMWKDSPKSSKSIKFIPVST
T1 sequence (P30518 whole entry): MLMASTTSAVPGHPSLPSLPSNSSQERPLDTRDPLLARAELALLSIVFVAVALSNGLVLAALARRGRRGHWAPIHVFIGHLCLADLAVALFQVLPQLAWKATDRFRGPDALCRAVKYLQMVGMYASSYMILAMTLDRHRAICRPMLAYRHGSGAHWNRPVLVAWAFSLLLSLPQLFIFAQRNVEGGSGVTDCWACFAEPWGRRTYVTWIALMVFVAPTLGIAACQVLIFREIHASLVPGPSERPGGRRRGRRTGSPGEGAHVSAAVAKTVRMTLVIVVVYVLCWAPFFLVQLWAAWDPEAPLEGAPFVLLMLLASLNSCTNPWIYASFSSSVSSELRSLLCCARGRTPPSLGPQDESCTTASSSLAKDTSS

IC50 [1] [µM] | IC50 [2] [µM] | ratio IC50 hV2/hV1a [2] | IC50 ([1]; 3 hours) [µM] | Structure (SMILES)
0.305 | 0.0068 | 44.9 |  | O=C(NC1CC1(F)F)c1cccnc1-n1cnc(Cn2nc(-c3ccc(Cl)cc3)n(C[C@H](O)C(F)(F)F)c2=O)n1 (stereo partly drawn) [Example 500, 2-[3-({3-(4-Chlorophenyl)-5-oxo-4-[(2S)-3,3,3-trifluoro-2-hydroxypropyl]-4,5-dihydro-1H-1,2,4-triazol-1-yl}methyl)-1H-1,2,4-triazol-1-yl]-N-(2,2-difluorocyclopropyl)pyridine-3-carboxamide]
3.95 | 0.037 | 106.8 |  | CC1(NC(=O)c2ncccc2-n2cnc(Cn3nc(-c4ccc(Cl)cc4)n(C[C@@H](O)C(F)(F)F)c3=O)n2)CC1 [Example 483, 3-[3-({3-(4-Chlorophenyl)-5-oxo-4-[(2R)-3,3,3-trifluoro-2-hydroxypropyl]-4,5-dihydro-1H-1,2,4-triazol-1-yl}methyl)-1H-1,2,4-triazol-1-yl]-N-(1-methylcyclopropyl)pyridine-2-carboxamide]
 | 0.00058 | 321.7 | 0.185 | Nc1ccc(NC(=O)c2ccccc2-n2cnc(Cn3nc(-c4ccc(Cl)cc4)n(C[C@H](O)C(F)(F)F)c3=O)n2)cc1 [Example 205, N-(4-Aminophenyl)-2-[3-({3-(4-chlorophenyl)-5-oxo-4-[(2S)-3,3,3-trifluoro-2-hydroxypropyl]-4,5-dihydro-1H-1,2,4-triazol-1-yl}methyl)-1H-1,2,4-triazol-1-yl]benzamide]
 | 0.00365 | 265.8 | 0.97 | O=C(c1ccccc1-n1cnc(Cn2nc(-c3ccc(Cl)cc3)n(C[C@H](O)C(F)(F)F)c2=O)n1)N1CCC(F)(F)C1 [Example 268, 5-(4-Chlorophenyl)-2-[(1-{2-[(3,3-difluoropyrrolidin-1-yl)carbonyl]phenyl}-1H-1,2,4-triazol-3-yl)methyl]-4-[(2S)-3,3,3-trifluoro-2-hydroxypropyl]-2,4-dihydro-3H-1,2,4-triazol-3-one]
 | 0.727 | 0.5 | 0.37 | CC(F)(F)CNc1ccncc1-n1cnc(Cn2nc(-c3ccc(Cl)cc3)n(C[C@H](O)C(F)(F)F)c2=O)n1 [Example 12, 5-(4-Chlorophenyl)-2-[(1-{4-[(2,2-difluoropropyl)amino]pyridin-3-yl}-1H-1,2,4-triazol-3-yl)methyl]-4-[(2S)-3,3,3-trifluoro-2-hydroxypropyl]-2,4-dihydro-3H-1,2,4-triazol-3-one]
